Data: patent US20250262336A1, “[177LU] LUTETIUM-PSMA I&T COMPOSITION AND DOSIMETRY, KIT, METHOD OF MAKING, AND METHOD OF USING THEREOF” (Curium US LLC, priority 2023, published 2025)

Assay: Cycle 3 biodistribution and dosimetry (SPECT/CT, single or multiple time points)
Assay type: in vivo, human
Method: (§1) To evaluate potential changes in the tracer's kinetics and uptake after multiple treatment cycles, 16 of the 27 patients included in the dosimetry sub study, were imaged at both cycle 1 and cycle 3. Among these, at cycle 3, three patients were imaged at all 4 timepoints and the other 13 were imaged at one or two timepoints only (24 h, 48 h or both 24 h and 48 h) (Table 2). For these 13 patients, the TACs obtained at cycle 1 were used for each source organ and scaled to the normalized activity value(s) measured at Cycle 3. For patients imaged at two timepoints, the TACs were preferably scaled using the average scaling factor between the two timepoints.
A subgroup of 16 out of the 27 patients underwent and additional dosimetry assessment at Cycle 3. Among these, three patients had dosimetry performed based on images taken at 4 timepoints, while the remaining patients had dosimetry performed at 1 or 2 imaging timepoints only.
as §1, with “7 in Appendix 1).” for “2).”
A subgroup of 16 out of the 27 patients underwent and additional dosimetry assessment at Cycle 3. Among these, three patients had dosimetry performed based on images taken at 4 timepoints, while the remaining patients had dosimetry performed at 1 or 2 imaging timepoints only, as described in Section 4.4.1.

[1] = Lacrimal Glands (OLINDA sphere model), N = 16

O=C(O)CC[C@H](NC(=O)N[C@@H](CCCCNC(=O)CCCCCCC(=O)NCCCC[C@@H](NC(=O)[C@@H](Cc1ccccc1)NC(=O)[C@@H](Cc1ccc(O)c(I)c1)NC(=O)CC[C@H](C(=O)O)N1CCN(CC(=O)O)CCN(CC(=O)O)CCN(CC(=O)O)CC1)C(=O)O)C(=O)O)C(=O)O [^177Lu-PSMA-I&T, (3S,7 S,26R,29R,32R,37R)-29-benzyl-32-(4-hydroxy-3-iodobenzyl)-5,13,20,28,31,34-hexaoxo-37-(4,7,10-tris(carboxymethyl)-1,4,7,10-tetraazacyclododecan-1-yl)-4,6,12,21,27,30,33-heptaazaheptatriacontane-1,3,7,26,37-pentacarboxylic acid; lutetium-177 (III), metal not drawn]
Absorbed Dose in Cycle 3, Mean (Adrenals, N = 16): 0.02 Gy/GBq
Absorbed Dose in Cycle 3, max (Adrenals, N = 16): 0.03 Gy/GBq
Absorbed Dose in Cycle 3, min (Adrenals, N = 16): 0.01 Gy/GBq
Absorbed Dose in Cycle 3, Mean (Brain, N = 16): 0.01 Gy/GBq
Absorbed Dose in Cycle 3, max (Brain, N = 16): 0.02 Gy/GBq
Absorbed Dose in Cycle 3, min (Brain, N = 16): 0.00 Gy/GBq
Absorbed Dose in Cycle 3, Mean (Esophagus, N = 16): 0.01 Gy/GBq
Absorbed Dose in Cycle 3, max (Esophagus, N = 16): 0.02 Gy/GBq
Absorbed Dose in Cycle 3, min (Esophagus, N = 16): 0.00 Gy/GBq
Absorbed Dose in Cycle 3, Mean (Eyes, N = 16): 0.01 Gy/GBq
Absorbed Dose in Cycle 3, max (Eyes, N = 16): 0.02 Gy/GBq
Absorbed Dose in Cycle 3, min (Eyes, N = 16): 0.00 Gy/GBq
Absorbed Dose in Cycle 3, Mean (Gallbladder wall, N = 16): 0.01 Gy/GBq
Absorbed Dose in Cycle 3, max (Gallbladder wall, N = 16): 0.02 Gy/GBq
Absorbed Dose in Cycle 3, min (Gallbladder wall, N = 16): 0.00 Gy/GBq
Absorbed Dose in Cycle 3, Mean (Heart wall, N = 16): 0.01 Gy/GBq
Absorbed Dose in Cycle 3, max (Heart wall, N = 16): 0.02 Gy/GBq
Absorbed Dose in Cycle 3, min (Heart wall, N = 16): 0.00 Gy/GBq
Absorbed Dose in Cycle 3, Mean (Kidneys, N = 16): 0.49 Gy/GBq
Absorbed Dose in Cycle 3, max (Kidneys, N = 16): 0.85 Gy/GBq
Absorbed Dose in Cycle 3, min (Kidneys, N = 16): 0.19 Gy/GBq
Absorbed Dose in Cycle 3, Mean [1]: 0.29 Gy/GBq
Absorbed Dose in Cycle 3, max [1]: 0.73 Gy/GBq
Absorbed Dose in Cycle 3, min [1]: 0.10 Gy/GBq
Absorbed Dose in Cycle 3, Mean (Left colon, N = 16): 0.41 Gy/GBq
Absorbed Dose in Cycle 3, max (Left colon, N = 16): 0.94 Gy/GBq
Absorbed Dose in Cycle 3, min (Left colon, N = 16): 0.07 Gy/GBq
Absorbed Dose in Cycle 3, Mean (Liver, N = 16): 0.06 Gy/GBq
Absorbed Dose in Cycle 3, max (Liver, N = 16): 0.15 Gy/GBq
Absorbed Dose in Cycle 3, min (Liver, N = 16): 0.00 Gy/GBq
Absorbed Dose in Cycle 3, Mean (Lungs, N = 16): 0.01 Gy/GBq
Absorbed Dose in Cycle 3, max (Lungs, N = 16): 0.02 Gy/GBq
Absorbed Dose in Cycle 3, min (Lungs, N = 16): 0.00 Gy/GBq
Absorbed Dose in Cycle 3, Mean (Osteogenic cells, N = 16): 0.02 Gy/GBq
Absorbed Dose in Cycle 3, max (Osteogenic cells, N = 16): 0.09 Gy/GBq
Absorbed Dose in Cycle 3, min (Osteogenic cells, N = 16): 0.00 Gy/GBq
Absorbed Dose in Cycle 3, Mean (Pancreas, N = 16): 0.01 Gy/GBq
Absorbed Dose in Cycle 3, max (Pancreas, N = 16): 0.02 Gy/GBq
Absorbed Dose in Cycle 3, min (Pancreas, N = 16): 0.00 Gy/GBq
Absorbed Dose in Cycle 3, Mean (Prostate, N = 16): 0.01 Gy/GBq
Absorbed Dose in Cycle 3, max (Prostate, N = 16): 0.02 Gy/GBq
Absorbed Dose in Cycle 3, min (Prostate, N = 16): 0.01 Gy/GBq
Absorbed Dose in Cycle 3, Mean (Rectum, N = 16): 0.39 Gy/GBq
Absorbed Dose in Cycle 3, max (Rectum, N = 16): 0.90 Gy/GBq
Absorbed Dose in Cycle 3, min (Rectum, N = 16): 0.06 Gy/GBq
Absorbed Dose in Cycle 3, Mean (Red Marrow, N = 16): 0.03 Gy/GBq
Absorbed Dose in Cycle 3, max (Red Marrow, N = 16): 0.17 Gy/GBq
Absorbed Dose in Cycle 3, min (Red Marrow, N = 16): 0.00 Gy/GBq
Absorbed Dose in Cycle 3, Mean (Right Colon, N = 16): 0.22 Gy/GBq
Absorbed Dose in Cycle 3, max (Right Colon, N = 16): 0.51 Gy/GBq
Absorbed Dose in Cycle 3, min (Right Colon, N = 16): 0.04 Gy/GBq
Absorbed Dose in Cycle 3, Mean (Salivary Glands, N = 16): 0.20 Gy/GBq
Absorbed Dose in Cycle 3, max (Salivary Glands, N = 16): 0.69 Gy/GBq
Absorbed Dose in Cycle 3, min (Salivary Glands, N = 16): 0.04 Gy/GBq
Absorbed Dose in Cycle 3, Mean (Small intestine, N = 16): 0.04 Gy/GBq
Absorbed Dose in Cycle 3, max (Small intestine, N = 16): 0.10 Gy/GBq
Absorbed Dose in Cycle 3, min (Small intestine, N = 16): 0.01 Gy/GBq
Absorbed Dose in Cycle 3, Mean (Spleen, N = 16): 0.03 Gy/GBq
Absorbed Dose in Cycle 3, max (Spleen, N = 16): 0.12 Gy/GBq
Absorbed Dose in Cycle 3, min (Spleen, N = 16): 0.01 Gy/GBq
Absorbed Dose in Cycle 3, Mean (Stomach Wall, N = 16): 0.01 Gy/GBq
Absorbed Dose in Cycle 3, max (Stomach Wall, N = 16): 0.02 Gy/GBq
Absorbed Dose in Cycle 3, min (Stomach Wall, N = 16): 0.00 Gy/GBq
Absorbed Dose in Cycle 3, Mean (Testes, N = 16): 0.01 Gy/GBq
Absorbed Dose in Cycle 3, max (Testes, N = 16): 0.02 Gy/GBq
Absorbed Dose in Cycle 3, min (Testes, N = 16): 0.00 Gy/GBq
Absorbed Dose in Cycle 3, Mean (Thymus, N = 16): 0.01 Gy/GBq
Absorbed Dose in Cycle 3, max (Thymus, N = 16): 0.02 Gy/GBq
Absorbed Dose in Cycle 3, min (Thymus, N = 16): 0.00 Gy/GBq
Absorbed Dose in Cycle 3, Mean (Thyroid, N = 16): 0.01 Gy/GBq
Absorbed Dose in Cycle 3, max (Thyroid, N = 16): 0.02 Gy/GBq
Absorbed Dose in Cycle 3, min (Thyroid, N = 16): 0.00 Gy/GBq
Absorbed Dose in Cycle 3, Mean (Total Body, N = 16): 0.02 Gy/GBq
Absorbed Dose in Cycle 3, max (Total Body, N = 16): 0.03 Gy/GBq
Absorbed Dose in Cycle 3, min (Total Body, N = 16): 0.01 Gy/GBq
Absorbed Dose in Cycle 3, Mean (Urinary Bladder wall, N = 16): 0.45 Gy/GBq
Absorbed Dose in Cycle 3, max (Urinary Bladder wall, N = 16): 0.70 Gy/GBq
Absorbed Dose in Cycle 3, min (Urinary Bladder wall, N = 16): 0.36 Gy/GBq
organ absorbed radiation dose, kidneys (cycle 3, 16 patients imaged at cycle 1 and 3): 0.49±0.19 Gy/GBq
Absorbed Dose in Cycle 3, Mean (in vivo): 0.29 Gy/GBq
Absorbed Dose in Cycle 3, max (in vivo): 0.73 Gy/GBq
Absorbed Dose in Cycle 3, min (in vivo): 0.10 Gy/GBq
